For four compounds, MIC results are on record in patent publication EP0597303A2, “Cephalosporin derivatives” (priority 1992, dated 1994).

Holding throughout (experiment): MIC, Agar (Mueller Hinton) Dilution Method
Type in all cases: cell-based

For one assay, the system named is Ent. faecalis ATCC 29212. To be noted: Enterococcus faecalis, ATCC29212, Gram Positive and Others. Put shortly:
(§1)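 Minimum inhibitory concentrations, in micrograms/ml, come from the Mueller Hinton agar dilution test run in vitro against diverse organisms.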

The subject of assay [1] is Pseudomonas aeruginosa 5712. Particulars: Gram Negative. The procedure, abridged:
as §1

The test system of the next assay is Str. pneumoniae 6302. Particulars: Streptococcus pneumoniae, Gram Positive and Others. Put shortly:
as §1

Where a name gives a salt, the structure may show the parent alone.

Usually MIC stands for the least concentration at which growth counts as inhibited. On to `O=C(Cc1cccs1)N[C@@H]1C(=O)N2C(C(=O)O)=C(COC(=O)N3CCN(c4c(F)cc5c(=O)c(C(=O)O)cn(C6CC6)c5c4F)CC3)CS[C@H]12` [Formula Ia, [6R,7R]-3-[[[[4-(3-Carboxy-1-cyclopropyl-6,8-difluoro-1,4-dihydro-4-oxo-7-quinolinyl)-1-piperazinyl]carbonyl]-oxy]-methyl]-8-oxo-7-[(2-thienylacetyl)amino]-5-thia-1-azabicyclo-[4.2.0]oct-2-ene-2-carboxylic acid], for which the figures for the minimal inhibitory concentration (MIC) (in the assay on Ent. faecalis ATCC 29212; in assay [1]) were 4 mg/L and 2 mg/L, respectively.
On to `N#CCC(=O)N[C@@H]1C(=O)N2C(C(=O)O)=C(COC(=O)NC3CCN(c4c(F)cc5c(=O)c(C(=O)O)cn(C6CC6)c5c4F)C3)CS[C@H]12` (stereo partly shown) [Formula Ib, [6R,7R]-3-[[[[[1-(3-Carboxy-1-cyclopropyl-6,8-difluoro-1,4-dihydro-4-oxo-7-quinolinyl-3-[R,S]-pyrrolidinyl]-amino]carbonyl]oxy]methyl]-7-[(cyanoacetyl)amino]-8-oxo-5-thia-1-azabicyclo[4.2.0]oct-2-ene-2-carboxyiic acid monosodium salt], for which the MIC (in the assay on Ent. faecalis ATCC 29212; in assay [1]) was 2 mg/L throughout.
With `N#CCC(=O)N[C@@H]1C(=O)N2C(C(=O)O)=C(COC(=O)N[C@H]3CCN(c4c(F)cc5c(=O)c(C(=O)O)cn(C6CC6)c5c4F)C3)CS[C@H]12` [Formula Iba, [6R-[3(S^*), 6 alpha, 7 beta]]-3-[[[[[1-(3-Carboxy-1-cyclopropyl-6,8-difluoro-1,4-dihydro-4-oxo-7-quinolinyl-3-pyrrolidinyl]-amino]carbonyl]oxy]methyl]-7-[(cyanoacetyl)amino]-8-oxo-5-thia 1-azabicyclo[4.2.0]oct-2-ene-2-carboxylic acid monosodium salt], the MIC was 0.5 mg/L in the assay on Ent. faecalis ATCC 29212, 0.0625 mg/L with Str. pneumoniae 6302 and 2 mg/L in assay [1].
For the compound `N#CCC(=O)N[C@@H]1C(=O)N2C(C(=O)O)=C(COC(=O)N[C@@H]3CCN(c4c(F)cc5c(=O)c(C(=O)O)cn(C6CC6)c5c4F)C3)CS[C@H]12` [Formula Ibb, [6R-[3(R^*), 6 alpha, 7 beta]]-3-[[[[[1-(3-Carboxy-1-cyclopropyl-6,8-difluoro-1,4-dihydro-4-oxo-7-quinolinyl-3-pyrrolidinyi]amino]carbonyl]oxy]methyL]-7-[(cyanoacetyl)amino]-8-oxo-5-thia-1-azabicyclo[4.2.0]oct-2-ene-2-carboxylic acid monosodium salt], the MIC against Ent. faecalis ATCC 29212 was 2 mg/L; against Str. pneumoniae 6302, 0.0625 mg/L; in assay [1], 4 mg/L.
